From patent US7605272B2, “IGF-1R inhibitor” (Kyowa Hakko Kirin Co., Ltd., priority 2005, dated 2009)
Counter-ions that a name gives are not always drawn. Like-named read-outs stand apart in the source and are kept apart here.

Tests used:
KMS-11 = experiment: Cytostatic activity on human multiple myeloma cell line KMS-11 (WST-1); type: cell-based; settings: for inhibition at 10 µM / inhibition at 1 µM: Homo sapiens, KMS-11, 72 h; for inhibition at 10 µM: 10 μmol/L, read-out: cytostatic rate (%) KMS-11 (10 μmol/L); for inhibition at 1 µM: read-out: cytostatic rate (%) KMS-11 (1 μmol/L)
Procedure, shortened: (§1)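 Cytostatic rate is 100 minus % growth relative to DMSO-only wells (100%) and blank wells (0%), read by WST-1 absorbance at 450/690 nm after 2 h. Compound at 1 or 10 μmol/L final was applied for 72 h at 37 °C to cells seeded 24 h earlier.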

IGF-1R = target: T1, IGF-1R (Homo sapiens, UniProt P08069); experiment: IGF-1R inhibitory activity (kinase reaction, time-resolved fluoroimmunoassay); type: biochemical; settings: test compound 10 μmol/L
T1 construct: purchased Upstate Co. 14-465
T1 sequence (P08069 959-1367 limits assumed): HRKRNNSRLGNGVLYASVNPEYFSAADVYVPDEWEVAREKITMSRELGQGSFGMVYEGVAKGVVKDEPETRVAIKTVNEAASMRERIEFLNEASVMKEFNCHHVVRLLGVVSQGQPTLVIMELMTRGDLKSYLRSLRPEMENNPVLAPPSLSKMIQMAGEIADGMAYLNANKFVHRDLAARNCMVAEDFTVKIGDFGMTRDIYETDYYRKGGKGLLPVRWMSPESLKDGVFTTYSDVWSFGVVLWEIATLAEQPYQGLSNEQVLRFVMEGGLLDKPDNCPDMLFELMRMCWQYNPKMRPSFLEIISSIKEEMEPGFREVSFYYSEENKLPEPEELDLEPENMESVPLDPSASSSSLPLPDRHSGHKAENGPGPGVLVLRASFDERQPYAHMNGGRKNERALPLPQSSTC
Procedure, shortened: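 Compounds were tested at a single 10 μmol/L concentration. Each was incubated with recombinant IGF-1R (200 μg/L), 10 mmol/L ATP, MgCl2/MnCl2 and Na3VO4 (pH 7.5) on immobilized poly(Glu-Tyr) peptide for 30 min at 24° C. Eu-anti-phosphotyrosine time-resolved fluorescence (340/615 nm) gave relative activity against no-compound and no-enzyme wells, reported as % inhibition.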

NCI-H929 = experiment: Cytostatic activity on human multiple myeloma cell line NCI-H929 (WST-1); type: cell-based; settings: for inhibition at 10 µM / inhibition at 1 µM: Homo sapiens, NCI-H929, 72 h; for inhibition at 10 µM: 10 μmol/L, read-out: cytostatic rate (%) H929 (10 μmol/L); for inhibition at 1 µM: read-out: cytostatic rate (%) H929 (1 μmol/L)
Procedure, shortened: as §1

[1] = IGF-1R active recombinant enzyme
[2] = KMS-11 cells, test compound 1 μmol/L, WST-1
[3] = NCI-H929 cells, test compound 1 μmol/L, WST-1

SMILES	inhibition at 10 µM (KMS-11; 72 hours)	inhibition at 10 µM (NCI-H929; 72 hours)	inhibition at 1 µM (KMS-11; 1 μmol/L, 72 hours)	inhibition at 10 µM (IGF-1R; [1])	inhibition at 1 µM (NCI-H929; 1 μmol/L, 72 hours)	also measured
Cc1ccsc1C(=O)Nc1cc(C(=O)N(C)C)ccc1/C=C/c1n[nH]c2ccccc12 [Compound 117, (E)-N-{5-(N,N-dimethylcarbamoyl)-2-[2-(1H-indazol-3-yl)vinyl]phenyl}-3-methylthiophene-2-carboxamide]	115%	119%	–	–	–	inhibition at 10 µM (IGF-1R): 101%
Cc1ccsc1C(=O)Nc1cc(C(=O)NCCN2CCOCC2)ccc1/C=C/c1n[nH]c2ccccc12 [Compound 282, (E)-N-(2-[2-(1H-indazol-3-yl)vinyl]-5-{N-[2-(morpholin-4-yl)ethyl]carbamoyl}phenyl)-3-methylthiophene-2-carboxamide]	–	–	123%	99.2%	130%	–
Cc1ccsc1C(=O)Nc1cc(C(=O)N2CCC(N)CC2)ccc1/C=C/c1n[nH]c2ccccc12 [Compound 111, (E)-N-{5-(4-aminopiperidin-1-ylcarbonyl)-2-[2-(1H-indazol-3-yl)vinyl]phenyl}-3-methylthiophene-2-carboxamide]	112%	120%	–	–	–	inhibition at 10 µM (IGF-1R): 98.1%
O=C(Nc1ccccc1/C=C/c1n[nH]c2ccccc12)c1ccc[nH]1 [Compound 42, (E)-N-{2-[2-(1H-indazol-3-yl)vinyl]phenyl}-1H-pyrrole-2-carboxamide]	109%	126%	–	98.9%	–	–
Cc1ccsc1C(=O)Nc1cc(N2CCN(S(C)(=O)=O)CC2)ccc1/C=C/c1n[nH]c2ccccc12 [Compound 272, (E)-N-{2-[2-(1H-indazol-3-yl)vinyl]-5-(4-methanesulfonylpiperazin-1-yl)phenyl}-3-methylthiophene-2-carboxamide]	–	–	135%	101%	120%	–
COCCCN1CCN(Cc2ccc(/C=C/c3n[nH]c4ccccc34)c(NC(=O)c3sccc3C)c2)CC1 [Compound 304, (E)-N-{2-[2-(1H-indazol-3-yl)vinyl]-5-[4-(3-methoxypropyl)piperazin-1-ylmethyl]phenyl}-3-methylthiophene-2-carboxamide]	–	–	105%	102%	115%	–
CCN(CC)CCOc1ccc(NC(=O)c2sccc2C)c(/C=C/c2n[nH]c3ccccc23)c1 [Compound 237, (E)-N-{2-[2-(1H-indazol-3-yl)vinyl]-4-(2-diethylaminoethoxy)phenyl}-3-methylthiophene-2-carboxamide]	–	–	144%	100%	120%	–
Cc1ccsc1C(=O)Nc1cc(CN2CCN(C=O)CC2)ccc1/C=C/c1n[nH]c2ccccc12 [Compound 270, (E)-N-{5-(4-formylpiperazin-1-ylmethyl)-2-[2-(1H-indazol-3-yl)vinyl]phenyl}-3-methylthiophene-2-carboxamide]	–	–	129%	100%	121%	–
O=C(Nc1ccccc1/C=C/c1n[nH]c2ccccc12)c1sccc1Cl [Compound 54, (E)-3-chloro-N-{2-[2-(1H-indazol-3-yl)vinyl]phenyl}thiophene-2-carboxamide]	126%	118%	–	96.7%	–	–
Cc1ccsc1C(=O)Nc1cc(CN2CCN(CCC#N)CC2)ccc1/C=C/c1n[nH]c2ccccc12 [Compound 268, (E)-N-{5-[4-(2-cyanoethyl)piperazin-1-ylmethyl]-2-[2-(1H-indazol-3-yl)vinyl]phenyl}-3-methylthiophene-2-carboxamide]	–	–	129%	101%	118%	–
O=C(Nc1ccccc1/C=C/c1n[nH]c2ccccc12)c1ccc(F)cc1 [Compound 3, (E)-4-fluoro-N-{2-[2-(1H-indazol-3-yl)vinyl]phenyl}benzamide]	118%	115%	–	99.1%	–	–
O=C(Nc1ccccc1/C=C/c1n[nH]c2ccccc12)c1ccno1 [Compound 37, (E)-N-{2-[2-(1H-indazol-3-yl)vinyl]phenyl}isoxazole-5-carboxamide]	112%	112%	–	99.1%	–	–
Cc1ccsc1C(=O)Nc1cc(CN2CCNC[C@H]2C)ccc1/C=C/c1n[nH]c2ccccc12 [Compound 331, (R)-(E)-N-{2-[2-(1H-indazol-3-yl)vinyl]-5-(2-methylpiperazin-1-ylmethyl)phenyl}-3-methylthiophene-2-carboxamide]	–	–	–	103%	–	inhibition at 1 µM (KMS-11; [2]): 102%; inhibition at 1 µM (NCI-H929; [3]): 116%
Cc1ccsc1C(=O)Nc1cc(C(=O)N(CCO)CCN2CCOCC2)ccc1/C=C/c1n[nH]c2ccccc12 [Compound 259, (E)-N-{5-[N-(2-hydroxyethyl)-N-(2-morpholinoethyl)carbamoyl]-2-[2-(1H-indazol-3-yl)vinyl]phenyl}-3-methylthiophene-2-carboxamide]	–	–	104%	102%	118%	–
Cc1ccsc1C(=O)Nc1cc(CN2CCC(N(C)C)C2)ccc1/C=C/c1n[nH]c2ccccc12 (stereo not drawn) [Compound 294, (E)-N-{5-[3-(dimethylamino)pyrrolidin-1-ylmethyl]-2-[2-(1H-indazol-3-yl)vinyl]phenyl}-3-methylthiophene-2-carboxamide]	–	–	116%	98.2%	118%	–
Cc1ccsc1C(=O)Nc1cc(N(C)CCO)ccc1/C=C/c1n[nH]c2ccccc12 [Compound 280]	–	–	–	–	–	cytostatic rate (%) KMS-11 (1 μmol/L) (KMS-11; 1 μmol/L, 72 hours): 109.0%; inhibitory activity (%) at 10 μmol/L (IGF-1R; [1]): 97.6%; cytostatic rate (%) H929 (1 μmol/L) (NCI-H929; 1 μmol/L, 72 hours): 112.2%
COCCCN1CCN(Cc2ccc(/C=C/c3n[nH]c4ccccc34)c(N3Cc4c(N)cccc4C3=O)c2)CC1 [Compound 321, (E)-4-amino-2-{5-[4-(3-methoxypropyl)piperazin-1-ylmethyl]-2-[2-(1H-indazol-3-yl)vinyl]phenyl}-2,3-dihydroisoindole-1-one]	–	–	–	101%	–	cytostatic rate (%) KMS-11 (1 μmol/L) (KMS-11; [2]): 102.3%; inhibition at 1 µM (NCI-H929; [3]): 122%
CCN(CC)CCNC(=O)c1ccc(/C=C/c2n[nH]c3ccccc23)c(NC(=O)c2sccc2C)c1 [Compound 230, (E)-N-{5-(2-diethylaminoethylcarbamoyl)-2-[2-(1H-indazol-3-yl)vinyl]phenyl}-3-methylthiophene-2-carboxamide hydrochloride]	–	–	93.8%	98.9%	124%	–
Cc1cc(C(=O)Nc2ccccc2/C=C/c2n[nH]c3ccccc23)c(C(F)(F)F)o1 [Compound 59, (E)-N-{2-[2-(1H-indazol-3-yl)vinyl]phenyl}-5-methyl-2-trifluoromethylfuran-3-carboxamide]	106%	110%	–	86.3%	–	–
Cc1ccsc1C(=O)Nc1cc(CN2CCNC[C@@H]2C)ccc1/C=C/c1n[nH]c2ccccc12 [Compound 336, (E)-(S)—N-{2-[2-(1H-indazol-3-yl)vinyl]-5-(2-methylpiperazin-1-ylmethyl)phenyl}-3-methylthiophene-2-carboxamide]	–	–	–	101%	–	inhibition at 1 µM (KMS-11; [2]): 115%; inhibition at 1 µM (NCI-H929; [3]): 131%
O=C(Nc1ccccc1/C=C/c1n[nH]c2ccccc12)c1cnccn1 [Compound 28, (E)-N-{2-[2-(1H-indazol-3-yl)vinyl]phenyl}pyrazine-2-carboxamide]	109%	116%	–	95.2%	–	–
Cl.Cn1cccc1C(=O)Nc1cc(N2CCOCC2)ccc1/C=C/c1n[nH]c2ccccc12 [Compound 246, (E)-{2-[2-(1H-indazol-3-yl)vinyl]-5-(morpholin-4-yl)phenyl}-1-methyl-1H-pyrrole-2-carboxamide monohydrochloride]	–	–	–	–	–	cytostatic rate (%) KMS-11 (1 μmol/L) (KMS-11; 1 μmol/L, 72 hours): 128.9%; inhibitory activity (%) at 10 μmol/L (IGF-1R; [1]): 100.2%; cytostatic rate (%) H929 (1 μmol/L) (NCI-H929; 1 μmol/L, 72 hours): 126.7%
CN[C@@H]1CN(CCCOc2ccc(/C=C/c3n[nH]c4ccccc34)c(NC(=O)c3sccc3C)c2OC)C[C@H]1OC (relative stereo) [Compound 348, (E)-N-(6-[2-(1H-indazol-3-yl)vinyl]-2-methoxy-3-{3-[(3R*,4R*)-3-methoxy-4-(methylamino)pyrrolidin-1-yl]propoxy}phenyl)-3-methylthiophene-2-carboxamide]	–	–	117%	109%	116%	–
Nc1cccc2c1C(=O)N(c1cc(CN3CCN(CCO)CC3)ccc1/C=C/c1n[nH]c3ccccc13)C2=O [Compound 307, (E)-4-amino-2-{5-[4-(2-hydroxyethyl)piperazin-1-ylmethyl]-2-[2-(1H-indazol-3-yl)vinyl]phenyl}isoindole-1,3-dione]	–	–	–	100%	–	inhibition at 1 µM (KMS-11; [2]): 110%; inhibition at 1 µM (NCI-H929; [3]): 114%
